Patent publication US20180360799A1, “Nitrofuran Derivatives That Induce Apoptosis in Breast Cancer Cells by Activating Protein Expression” (Oklahoma Medical Research Foundation, priority 2015, published 2018)

What was measured:
Type in all cases: cell-based, human
CHOP gene = experiment: CHOP mRNA by qRT-PCR in HCC-1806 cells
Method: The results are the means of 4 replicate wells and are representative of 3 independent studies. *P<0.05 and **P<0.01 by Student's t-test compared with cells treated with DMSO (in FIG. 3A) or with 3d for 0 h (in FIG. 3B). […] The results are the means of 4 replicate wells and are representative of 3 independent studies. *P<0.05 and **P<0.01 by Student's t-test compared with cells treated with compound 3d for 0 h. […] Total RNA was extracted using TRIzol reagent (Invitrogen, Carlsbad, Calif.) according to the manufacturer's protocol, and 2 μg of total RNA was reverse transcribed using a Superscript kit (Invitrogen). Real-time PCR was performed in 96-well format using SYBR Select Master Mix (Applied Biosystems, Foster City, Calif.) with an ABI 7500 PCR system (Applied Biosystems). The primer sequences used were: Human CHOP: SEQ ID NO: 1 [NT] and SEQ ID NO: 2 [NT]. Human ATF4: SEQ ID NO: 3 [NT] and SEQ ID NO: 4 [NT]. Human XBP1: SEQ ID NO: 5 [NT] and SEQ ID NO: 6 [NT]. Human Cyclophilin A: SEQ ID NO: 7 [NT] and SEQ ID NO: 8 [NT]. Human GAPDH: SEQ ID NO: 9 [NT] and SEQ ID NO: 10 [NT].

HCC-1806 cells = experiment: Live-cell phase-contrast microscopy of HCC-1806 cells; conditions: near confluent HCC-1806, 10 μM, 24 h
Method: FIG. 2A is an image showing apoptosis of HCC-1806 cells after treatment with a 5-nitrofuran-2-amide derivative compound 3d (above). Cells were treated with 3d (10 μM) for the indicated times, and cleavage of caspase-3 was determined by Western blotting. α-Tubulin was used as a loading control. The data shown are representative of 3 independent studies. FIGS. 2B and 2C are live-cell phase-contrast images (magnification 10×) showing treatment with DMSO and (10 μM) 5-nitrofuran-2-amide derivative compound 3d respectively for 24 h. To determine whether the reduction in TNBC cell viability by the 5-nitrofuran-2-amide derivatives was due to the induction of apoptosis, the inventor analyzed cleavage of caspase-3, a critical executioner of apoptosis, in HCC-1806 cells treated with compound 3d. […] To confirm this, HCC-1806 cells were cultured to near confluence and treated with 10 μM 3d or DMSO for 24 h and then imaged by live-cell phase-contrast microscopy.

CHOP protein = CHOP protein by Western blotting in HCC-1806 cells; conditions: 10 μM, significant increases between 4 h and 24 h
Method: FIG. 3B is an image showing CHOP […] expression levels after treatment with a 5-nitrofuran-2-amide derivative. Cells were treated with compound 3d (10 μM) for the indicated times, and CHOP protein levels were analyzed by Western blotting. α-Tubulin was used as a loading control. The data shown are representative of 3 independent studies.
HCC-1806 cells were seeded in 60-mm dishes at 8×10^5 cells/dish and treated for the indicated times. Cells were then washed with PBS and lysed with lysis buffer (Cell Signaling Technology, Danvers, Mass., US) containing EDTA and phosphatase inhibitors. Aliquots of 20 μg total protein were separated on 7% SDS-PAGE gels (Life Technologies, Carlsbad, Calif., US) and transferred to PVDF membranes. The membranes were probed with primary antibodies followed by the appropriate HRP-conjugated secondary antibodies (goat anti-rabbit IgG and goat anti-mouse IgG, 1:3000; Santa Cruz Biotechnology, Santa Cruz, Calif., US). Blots were then developed. The primary antibodies and dilutions used were: CHOP (1:1000 no. MA1-250; Thermo, IL, US), cleaved caspase 3 (1:1000 no. 9661; Cell Signaling Technology), ATF4 (1:1000 no. 10835-1-AP; ProteinTech Group, IL, US), p-eIF2α (Ser51) (1:1000 no. 9721; Cell Signaling Technology), and α-tubulin (1:2000 no. SC-8035; Santa Cruz Biotechnology).

[1] = system: UPRE-Luciferase (UPRE-Luc) reporter; experiment: UPRE-Luc reporter assay in HEK293 cells; conditions: 3d 10 μM or Tm 1 μg/mL, 24 h
Method: FIG. 3G is a graph showing HEK293 cells stably expressing CHOP-Luc, ERSE-Luc, or UPRE-luc reporters were treated with DMSO, a 5-nitrofuran-2-amide derivative, or tunicamycin. HEK293 cells stably expressing CHOP-Luc, ERSE-Luc, or UPRE-luc reporters were treated with DMSO, compound 3d (10 μM), or Tm (1 μg/mL) for 24 h, and luciferase activity was measured using the Bright-Glo assay. Results are the means of 4 replicate wells and are representative of 3 independent experiments.
The inventor next asked whether the IRE1α and ATF6 branches of the unfolded protein response were also activated by compound 3d treatment of TNBC cells. […] XBP1 mRNA splicing, as measured by XBP1s levels, increased only slightly in the first 24 h after compound 3d treatment of HCC-1806 cells (from 11% of total XBP1 at 0 h to 15˜20% at 2˜24 h). […] Next, it was determined whether compound 3d activates the ATF6 pathway by evaluating its effect on the activity of an ER stress response elements (ERSE)-Luc reporter stably established in HEK293 cell line.
The HEK293T CHOP reporter cell line (CHOP-Luc) was previously described.^21 HEK293T cells were stably transfected with ERSE-Luciferase^25 and UPRE-Luciferase^23 reporters to generate ERSE-Luc and UPRE-Luc reporter cell lines, respectively. […] Luciferase activity was measured with a Bright-Glo kit 24 h later.

In the case of `CC1CCN(c2ccc(NC(=O)c3ccc([N+](=O)[O-])o3)cc2)CC1` [Compound 3d], the “CHOP transcription, time dependence” value (CHOP gene; HCC-1806, 10 μM, indicated times) is reported as “increased CHOP transcription in a time-dependent fashion”, the “CHOP mRNA levels relative to DMSO-treated cells” value (CHOP gene; HCC-1806, dose- and time-dependent studies) is reported as “up to 9 fold” and the “CHOP mRNA levels, dose dependence” value (CHOP gene; HCC-1806, indicated concentrations, 8 h) is reported as “significantly increased CHOP mRNA levels in a dose-dependent manner”. For the same compound, the “cell death seen by phase-contrast imaging” value (HCC-1806 cells) was “few cells were observed”, the CHOP protein levels (CHOP protein) was “increased CHOP protein levels” and the “increase of UPRE-Luc luciferase activity” value [1] was “less than 2 fold”.
